The text below walks through data of US9131692B2, “Antibacterial imidazolium compound and antibacterial photocurable thiol-ene compositions comprising the same, and antibacterial polymer coatins prepared therefrom” (Korea Institute of Science and Technology, priority 2013, dated 2015).

What all share (assay type): cell-based
Experiment [1] relates to Moraxella catanhalis (ATCC 25240). Nature of the experiment: MIC test of imidazolium salt.
In experiment [2] the test system is Salmonella typhimurium (ATCC 1331). Briefly: MIC test of imidazolium salt.
For experiment [3], the system named is Serratia marcescens (ATCC 27117). Briefly: MIC test of imidazolium salt.
The next experiment relates to various strains. Nature of the experiment: MIC test of imidazolium salt, overall statement. Particulars: text summary of Table 7; compared with benzoalconium chloride (BKC).

Each structure is given as a SMILES string. Where a name gives a salt, the structure may show the parent alone.

As to `C=CCn1cc[n+](CCCCCCCCCCCC)c1` [ADIm(Br), 1-allyl-3-dodecylimidazolium salt], the “ADIm(Br) concentration at which strain has antibiosis” value in experiment [1], in experiment [2] and in experiment [3] was 1000 µg/mL in each case. Further, the “antibacterial activity over various strains” value in the experiment with various strains is on record as “very excellent antibacterial activity, similar to that of benzoalconium chloride (BKC)”.
